# Results from US20260335341A1, “METHODS FOR TREATING PAEDIATRIC NEUROLOGICAL DISORDERS” (Neurotech International Limited, priority 2022, published 2026).
# Values joined by “and” are separate entries in the source; they are usually repeats but may differ in a detail not shown here. Equal entries are not always repeated. Where two headings read alike, the source gives them in different places.
# Assays:
# [1] = tested on: excitotoxic cell injury paradigm; assay: Cell death in an excitotoxic cell injury paradigm; assay type: cell-based, human
# Procedure: Neuronal viability was quantified using MTT [3-(4,5-dimethylthiazol-2-yl-)-2,5-diphenyl-2H-tetrazolium bromide; Sigma]. […] Cellular excitotoxicity was achieved via glutamate activation (3 mM).
# COX-2 [2] = assay: COX-2 expression, immunohistochemistry, human derived microglial cells (Example 4); assay type: cell-based; conditions: 2 μg/ml, N = 9
# Procedure: (§1) Immunohistochemistry (Protein Level) Assay: Cells were fixed for 10 min with 4% paraformaldehyde (PFA) in PBS. After 3×5 minutes washing with PBS, cells were incubated with primary antibodies (anti-COX2) 1:1000 overnight at 4 °C, and after 3×5 minutes washing in PBS, cells were then incubated in appropriate fluorescent secondary antibody 1:250 (Invitrogen) for 2 hours at room temperature. After a final wash, as previous, cells nuclei were sained with DAPI in the mounting media. Photomicrographs were taken of the cells in three fields of view per well from duplicate wells and analysed using Fiji for area coverage of each marker.
# (§2) The tubes are then placed in a sonication bath for 10 mins at 35-40 C. Upon completion of the sonication samples are then placed in a tray shaker (200 rpm) for 30 minutes at room temperature. Once completed the samples are then centrifuged at 4400 rpm for 5 minutes. The supernatant is collected for testing and development.
# (§3) For the CBD sample, a pure standard (in powder form) was used. CBD 98% isolate was purchased as a reference standard from LGC Standards (London UK) (CAS No. 13956-29-1). The CBD standard reference was prepared at concentration of 1 mg/ml (in acetonitrile). CBD dilutions were made in acetonitrile as follows: 2 μg/ml; 6 μg/ml; and 0.1 μg/ml.
# IL-12 = IL-12 level in microglial media, multiplex cytokine assay (Example 4); assay type: cell-based, human; conditions: 2 μg/ml; interleukin and interferon activation; control 99.91
# Procedure: (§4) Multiplex Cytokine/Chemokine Assay: Microglia media harvested following treatment initiation was centrifuged briefly to remove particulates (300 g for 10 min). Cytokine and chemokine levels in the microglial media were measured using a Bio-Plex 200 with a 96-well magnetic plate assay according to the manufacturer's instructions (Bio-Rad). Cytokines and chemokines measured included IL-1α, IL-1β, IL-2, IL-6, IL-10, IL-12 (p70), IL-13, G-CSF, GM-CSF, IFNγ, TNFα, CXCL1 (KC), CCL2 (MCP-1), and CCL5 (RANTES). All samples were run in duplicate and data were analyzed with the Bio-Plex Manager software.
# as §2, §3
# TNF-alpha = TNF-alpha level in microglial media, multiplex cytokine assay (Example 4); assay type: cell-based, human; conditions: 2 μg/ml; interleukin and interferon activation
# Procedure: as §4, §2, §3
# COX-2 [3] = assay: COX-2 activity, immunohistochemistry, human derived microglial cells, diclofenac combination (Example 6); assay type: cell-based; parameters: unit not given here; conditions: 2 μg/ml each, I&I inflammation activation, N = 9
# Procedure: as §1, with “Human derived microglial cells” for “Immunohistochemistry (Protein Level) Assay: Cells”
# COX-2 is measured using the immunohistochemistry assay—as described above. […] In the treatment groups, these cells are also treated with various treatments and COX-2 expression is then assessed following these treatments (1 hr after treatment).
# as §2, with “In this example, ethanol extraction was used. […] The tubes” for “The tubes”
# For the CBD sample, a pure standard (in powder form) was used. CBD 98% isolate was purchased as a reference standard from LGC Standards (London UK) (CAS No. 13956-29-1). […]
# human microglial cells = assay: DAPI cell viability stain (Example 4); assay type: cell-based
# [4] = tested on: cannabinoid receptor type 1 (CB1); conditions: cited from earlier work
# [5] = tested on: cannabinoid receptor type 2 (CB2); conditions: cited from earlier work
# neutrophil = conditions: cited from earlier work
# [6] = animals; cited from earlier work
# [7] = Stability of NTI164 oil formulation at room temperature (UPLC)
# TNF-a [8] = assay: TNF-a release from BV2 microglia, celecoxib combination (Example 7); assay type: cell-based; conditions: Celebrex 5 uM; NTI164 7.5 uM (as headed); combination Celebrex 5 uM + NTI164 7.5 ug/ml; activated control 45
# Procedure: (§5) The immortalized microglia cell line, BV2, was purchased from the American Tissue Culture Collection. BV2 were cultured in RPMI media containing gentamycin and supplemented with 10% fetal bovine serum (FBS) for expansion and 5% FBS when plated for experiments. All cells were from between passage numbers 39 and 45. Cells were plated at […] and treated 24 hours after plating with phosphate buffered saline (PBS, as a control) or interleurkin-1B+interferon-γ (IL-1B+IFNγ, to induce inflammation).
# as §4, with “Microglia” for “Multiplex Cytokine/Chemokine Assay: Microglia”, “that” for “and data”, “averaged for analysis, at least three samples per group were run.” for “analyzed with the Bio-Plex Manager software.”
# IL-6 [9] = assay: IL-6 release from BV2 microglia, celecoxib combination (Example 7); assay type: cell-based; conditions: Celebrex 5 uM; NTI164 7.5 uM (as headed); combination Celebrex 5 uM + NTI164 7.5 ug/ml; activated control 366.33
# Procedure: as §5
# as §4, with “Microglia” for “Multiplex Cytokine/Chemokine Assay: Microglia”, “that” for “and data”, “averaged for analysis, at least three samples per group were run.” for “analyzed with the Bio-Plex Manager software.”
# IL-1a [10] = assay: IL-1a release from BV2 microglia, celecoxib combination (Example 7); assay type: cell-based; conditions: Celebrex 5 uM; NTI164 7.5 uM (as headed); combination Celebrex 5 uM + NTI164 7.5 ug/ml; activated control 154.83
# Procedure: as §5
# as §4, with “Microglia” for “Multiplex Cytokine/Chemokine Assay: Microglia”, “that” for “and data”, “averaged for analysis, at least three samples per group were run.” for “analyzed with the Bio-Plex Manager software.”
# GM-CSF [11] = assay: GM-CSF release from BV2 microglia, celecoxib combination (Example 7); assay type: cell-based; conditions: Celebrex 5 uM; NTI164 7.5 uM (as headed); combination Celebrex 5 uM + NTI164 7.5 ug/ml; activated control 768.13
# Procedure: as §5
# as §4, with “Microglia” for “Multiplex Cytokine/Chemokine Assay: Microglia”, “that” for “and data”, “averaged for analysis, at least three samples per group were run.” for “analyzed with the Bio-Plex Manager software.”
# TNF-a [12] = assay: TNF-a, prednisone combination (Example 8); assay type: cell-based; conditions: PDN 5 uM; NTI164 7.5 ug/ml; combination PDN 5 uM + NTI164 7.5 ug/ml; activated control 45
# From the text: (§6) Student's t-test was used for statistical analysis.
# IL-6 [13] = assay: IL-6, prednisone combination (Example 8); assay type: cell-based; conditions: PDN 5 uM; NTI164 7.5 ug/ml; combination PDN 5 uM + NTI164 7.5 ug/ml; activated control 366.33
# From the text: as §6
# IL-1a [14] = assay: IL-1a, prednisone combination (Example 8); assay type: cell-based; conditions: PDN 5 uM; NTI164 7.5 ug/ml; combination PDN 5 uM + NTI164 7.5 ug/ml; activated control 154.83
# From the text: as §6
# GM-CSF [15] = assay: GM-CSF, prednisone combination (Example 8); assay type: cell-based; conditions: PDN 5 uM; NTI164 7.5 ug/ml; combination PDN 5 uM + NTI164 7.5 ug/ml; activated control 768.13
# From the text: as §6
# [16] = in vitro, at low concentrations
smiles,measurement,setting,value
"C=C(C)[C@@H]1CCC(C)=C[C@H]1c1c(O)cc(CCCCC)cc1O [CBD, Cannabidiol]",Toxicity / effect on cell number and cell viability,[1],toxic in this paradigm
same,"COX-2 expression, average +/- SEM, exposure after inflammatory insult","COX-2 [2]; exposure 1 hour after inflammatory insult (interleukin and interferon gamma), control 104.26",76.32 +/− 7.95 (SEM)
same,"COX-2 expression, average +/- SEM, exposure before inflammatory insult","COX-2 [2]; exposure 1 hour prior to inflammatory insult (interleukin and interferon gamma), control 94.47",84.82 +/− 7.65 (SEM)
same,"IL-12, average +/- SD",IL-12,84.40 +/− 6.54
same,"TNF-alpha, average +/- SD",TNF-alpha,71.13 +/− 12.81
same,"COX-2 activity, individual replicate",COX-2 [3]; 1 hr after treatment,42.4 and 44.92 and 109.99 and 136.99 and 117.84 and 43.14 and 77.81 and 59.02 and 73.8
same,"COX-2 activity, mean",COX-2 [3]; activated control mean 101.39,78.43
same,Cell death by DAPI cell viability stain,human microglial cells,DAPI cell viability stain: No cell death was detected and assessed as per the DAPI cell staining method.
same,Allosteric modulation of CB1,[4],negative allosteric modulator of CB1
same,Affinity for CB1,[4]; compared to Δ9-THC,low affinity
same,CB1 antagonistic effect,[4]; [16],weak CB1 and CB2 antagonistic effect
same,Allosteric modulation of CB1,[4]; listed as Cannabidiol,negative allosteric modulator of the cannabinoid CB1 receptor
same,Affinity for CB2,[5]; compared to Δ9-THC,low affinity
same,CB2 antagonistic effect,[5]; [16],weak CB1 and CB2 antagonistic effect
same,Neutrophil chemotaxis and proliferation,neutrophil,inhibit neutrophil chemotaxis and proliferation
same,Oral bioavailability,[6],13-19%
same,"Cannabinoid content of NTI164, Day 14",[7],0.56 mg/mL
same,"Cannabinoid content of NTI164, Day 0","[7]; NTI164 oil, room temperature, Day 0",0.46 mg/mL
same,"Cannabinoid content of NTI164, Day 2","[7]; NTI164 oil, room temperature, Day 2",0.56 mg/mL
same,"Cannabinoid content of NTI164, Day 7","[7]; NTI164 oil, room temperature, Day 7",0.53 mg/mL
same,"Cannabinoid content of NTI164, Day 28","[7]; NTI164 oil, room temperature, Day 28",0.54 mg/mL
same,"Cannabinoid content of NTI164, Week 5","[7]; NTI164 oil, room temperature, Week 5",0.60 mg/mL
same,"Cannabinoid content of NTI164, Week 6","[7]; NTI164 oil, room temperature, Week 6",0.51 mg/mL
same,"Cannabinoid content of NTI164, Week 32","[7]; NTI164 oil, room temperature, Week 32",0.48 mg/mL
"Cc1ccc(-c2cc(C(F)(F)F)nn2-c2ccc(S(N)(=O)=O)cc2)cc1 [Celebrex, celecoxib]",TNF-a,TNF-a [8],30.17
same,IL-6,IL-6 [9],128.50
same,IL-1a,IL-1a [10],112.5
same,GM-CSF,GM-CSF [11],511.97
"C[C@]12C=CC(=O)C=C1CC[C@@H]1[C@@H]2C(=O)C[C@@]2(C)[C@H]1CC[C@]2(O)C(=O)CO [PDN, Prednisone]",TNF-a,TNF-a [12],30.17
same,IL-6,IL-6 [13],228.50
same,IL-1a,IL-1a [14],144.5
same,GM-CSF,GM-CSF [15],611.97
